Measured values published in PMC11435625, “In Vitro Hepatic Clearance Evaluations of Per- and Polyfluoroalkyl Substances (PFAS) across Multiple Structural Categories” (Toxics, 2024).

What was measured:
plasma protein = settings: cited from earlier work; for Mean fu: fraction unbound in plasma, input for IVIVE calculations
[1] = IVIVE: steady-state concentration (Css), generic HTTK model; set-up: species or system human; settings: for Css (mg/L) / Css (uM): Assuming 1 mg/kg/day dose rate, BW 70 kg; for CLhep: QL 1500000 uL/min; for Fub: fub=fup/(B:P), Fub set to 1 if needed; for CLint: scaled to whole liver: HPGL 110 mill cells/g, Vl 1596 g
Procedure: IVIVE was performed as previously described to calculate human steady-state concentrations (Css). Briefly, experimental plasma protein binding data presented elsewhere were transformed to fraction unbound in blood using blood-to-plasma partitioning values. Experimental Clint values generated here are used in conjunction with relevant liver scalars to scale up to estimate whole liver clearance. […] Once Css values were established, these were used with the PFAS-specific in vitro POD data to calculate the administered equivalent doses (AEDs) using reverse dosimetry. […] The fifth-percentile AC50 value was used to define the in vitro POD. All relevant inputs, scalars, and calculations are provided in Supplementary Information, as indicated in the results.

[2] = test system: pooled primary human hepatocyte suspensions; assay: Hepatic clearance assay (substrate depletion, LC-MS); settings: in µL/min/10^6 cells; for CLint for HTTK: CLint value carried into HTTK/IVIVE; for in vitro CLint exp assay / Unadj Clint: pooled primary human hepatocyte suspensions; for Unadj Clint: unadjusted hepatic intrinsic clearance, Table S4
Procedure: The rate of hepatic clearance was determined as previously described for a set of PFAS [11]. Analysis was conducted across two laboratories at the Division of Translational Toxicology (DTT) at the National Institute of Environmental Health Sciences (NIEHS) and the Center for Computational Toxicology and Exposure at the USEPA. The PFAS analyzed in each lab can be found in the Supplementary Materials.
The hepatic clearance assay was performed at both the DTT and EPA laboratories as described below. The pooled human hepatocyte suspensions used in this work were purchased commercially and meet the ethical and scientific standards described in the Human Ethics Rule (40 CFR 26). The suspensions were prepared from hepatocytes obtained from de-identified donors by a commercial vendor.
PFAS stock solutions prepared in DMSO were added to prewarmed William’s E medium to make a 2X working stock solution (2 µM). […] The working stock solutions were then transferred to a 96-well polypropylene plate and placed in an incubator at 37 °C with 5% carbon dioxide prior to adding cells. Cryopreserved pooled primary human hepatocyte suspensions (50-donor pool, mixed gender; BioIVT; Westbury, NY, USA) were thawed and transferred to vials containing hepatocyte thawing medium. After centrifuging for 5–10 min at 100× g, thawing medium was removed, being careful not to disturb the cell pellet. The primary human hepatocytes were then resuspended in pre-warmed complete Williams E medium to achieve a cell density of ~1.0 × 10^6 viable cells/mL as determined by Trypan Blue exclusion. Cells were then added to the 96-well incubation plates containing PFAS to achieve a final density of ~0.5 × 10^6 viable cells/mL and a 1 μM assay concentration (Ctest), then placed in incubator on a shaker at 300 rpm. Triplicate samples were removed from the incubator at time points ranging from 0 to 240 min and quenched with a total crash in 2–3 volumes of ice-cold acetonitrile. Samples were spun at 4000× g for 20 min, and supernatants were transferred to new tubes and stored at <−70 °C until analysis. Media-only (no cell) and/or heat-inactivated hepatocytes were included as negative controls for each chemical to evaluate and estimate chemical loss due to nonmetabolic processes (e.g., hydrolysis). Phenacetin was included in all runs as an assay reference compound; EPA also included propranolol as an additional reference compound.
Assay samples were diluted in mobile phase and analyzed using a Thermo Vanquish UPLC system with a Thermo Hypersil Gold aQ C18 column (100 × 2.1 mm, 1.9 […], Thermo Fisher Scientific Inc.) coupled to a Q Exactive Plus mass spectrometer. Gradient elution was used in the chromatographic separations using water with 20 mM ammonium acetate (mobile phase A) and methanol (mobile phase B), with the following gradient program: 0.5–7 min, 30%–90% B; 7–8 min, 90% B; 8–9 min, 90%–30% B; and 9–10 min, 30% B. The first minute of each injection was diverted to waste to avoid introduction of excessive salts from incubation medium. Analysis was detected in negative ion mode. Samples were quantified against an external, matrix-matched calibration curve. Additional methodologic information is available in Table S2.
To perform SPE, a positive-pressure manifold was employed along with Oasis WAX µElution plates and Oasis HLB 30 mg plates (Waters, Milford, MA, USA) for PFAS and positive-control extraction, respectively. […] The sorbent was then washed with 1% formic acid and water. Samples were eluted in 2% ammonia in methanol for analysis. Similarly, HLB plates were conditioned with methanol and water before sample was loaded onto the sorbent. The wells were then washed with 5% methanol in water and water before elution in methanol. For samples not undergoing SPE, the supernatant of the crashed assay sample was diluted in mobile phase prior to analysis. The first 1.5 min of the run was diverted to waste to prevent salt contamination.

SMILES | Mean fu (plasma protein) | Css (mg/L) [1] [mg/L] | Css (uM) [1] [µM] | CLhep [1] [L/h] | Fub [1] | CLint [1] [µL/min] | CLint for HTTK [2] | in vitro CLint exp assay [2] | fup (fraction unbound in plasma) (plasma protein; human plasma) | Css ([1]; human steady-state concentration, 1 mg/kg/day exposure rate, loss of parent compound only) [µM] | Unadj Clint [2]
O=C(O)C(F)(F)C(F)(F)C(F)F [4H-perfluorobutanoic acid (4H-PFBA)] | 0.1714 | 1.41 | 7.18 | 0.000 | 0.3116 | 0 | 0 | 0 |  |  | 
O=C(O)C(F)(F)C(F)(F)C(F)(F)C(F)(F)C(F)(F)C(F)(F)C(F)F [8H-Perfluorooctanoic acid (8H-PFOA)] | 0.0021 | 114.93 | 290.23 | 0.000 | 0.003818 | 0 | 0 | 0 |  |  | 
N.O=C(O)C(F)(F)C(F)(F)C(F)(F)C(F)(F)C(F)(F)C(F)(F)C(F)(F)F [Ammonium perfluorooctanoate (NH4PFOA)] | 0.0007 | 81.36 | 196.53 | 0.028 | 0.001273 | 361654 | 2.06 | 2.06 |  |  | 
O=C(O)C(F)(F)C(F)(F)C(F)(F)C(F)(F)F [PFPeA, Perfluoropentanoic acid] |  |  |  |  |  |  |  |  | 0.0440 | 20.78 | 2.13
O=S(=O)(O)C(F)(F)C(F)(F)C(F)(F)C(F)(F)C(F)(F)C(F)(F)C(F)(F)F [Perfluoroheptanesulfonic acid (PFHpS)] | 0.0006 | 402.24 | 893.98 | 0.000 | 0.001091 | 0 | 0 | 0 |  |  | 
O=C(Cl)C(F)(F)C(F)(F)C(F)(F)C(F)(F)C(F)(F)C(F)(F)F [Perfluoroheptanoyl chloride (PFHpA-Cl)] | 0.0017 | 180.82 | 473.43 | 0.000 | 0.002427 | 0 | 0 | 0 |  |  | 
NS(=O)(=O)C(F)(F)C(F)(F)C(F)(F)C(F)(F)C(F)(F)C(F)(F)F [Perfluorohexanesulfonamide (PFHxSA)] | 0.0004 | 603.36 | 1512.33 | 0.000 | 0.0007273 | 0 | 0 | 0 |  |  | 
O=S(=O)(O)C(F)(F)C(F)(F)C(F)(F)C(F)(F)C(F)(F)C(F)(F)F [Perfluorohexanesulfonic acid (PFHxS)] | 0.0009 | 268.16 | 670.49 | 0.000 | 0.001636 | 0 | 0 | 0 |  |  | 
O=C(O)C(F)(F)C(F)(F)C(F)(F)C(F)(F)C(F)(F)C(F)(F)C(F)(F)C(F)(F)F [Perfluorononanoic acid (PFNA)] | 0.0016 | 150.84 | 325.11 | 0.000 | 0.002909 | 0 | 0 | 0 |  |  | 
NS(=O)(=O)C(F)(F)C(F)(F)C(F)(F)C(F)(F)C(F)(F)C(F)(F)C(F)(F)C(F)(F)F [Perfluorooctane sulfonamide (PFOSA)] | 0.0039 | 2.16 | 4.33 | 1.313 | 0.007091 | 3131990 | 17.84 | 17.84 |  |  | 
O=S(=O)(O)C(F)(F)C(F)(F)C(F)(F)C(F)(F)C(F)(F)C(F)(F)C(F)(F)C(F)(F)F [Perfluorooctane sulfonate (PFOS)] | 0.0049 | 49.25 | 98.52 | 0.000 | 0.008909 | 0 | 0 | 0 |  |  | 
O=S(=O)(O)C(F)(F)C(F)(F)C(F)(F)C(F)(F)C(F)(F)C(F)(F)C(F)(F)C(F)(F)F [Perfluorooctanesulfonate (PFOS-)] | 0.0047 | 51.35 | 102.71 | 0.000 | 0.008545 | 0 | 0 | 0 |  |  | 
O=C(O)C(F)(F)C(F)(F)C(F)(F)C(F)(F)C(F)(F)C(F)(F)C(F)(F)F [Perfluorooctanoic acid (PFOA)] | 0.001 | 241.34 | 582.99 | 0.000 | 0.001818 | 0 | 0 | 0 |  |  | 
O=C(O)C(F)(F)C(F)(F)C(F)(F)C(F)(F)F [Perfluoropentanoic acid (PFPeA)] | 0.044 | 5.49 | 20.78 | 0.000 | 0.08 | 0 | 0 | 0 |  |  | 
O=C(O)C(F)(F)C(F)(F)F [Perfluoropropanoic acid (PFPrA)] | 0.3108 | 0.78 | 4.74 | 0.000 | 0.5651 | 0 | 0 | 0 |  |  | 
O=C(O)C(F)(F)C(F)(F)C(F)(F)C(F)(F)C(F)(F)C(F)(F)C(F)(F)C(F)(F)C(F)(F)C(F)(F)C(F)(F)C(F)(F)C(F)(F)F [Perfluorotetradecanoic acid (PFTeA)] | 0.0271 | 8.91 | 12.47 | 0.000 | 0.04927 | 0 | 0 | 0 |  |  | 
O=C(O)C(F)(F)C(F)(F)C(F)(F)C(F)(F)C(F)(F)C(F)(F)C(F)(F)C(F)(F)C(F)(F)C(F)(F)C(F)(F)C(F)(F)F [Perfluorotridecanoic acid] | 0.0433 | 5.57 | 8.39 | 0.000 | 0.07873 | 0 | 0 | 0 |  |  | 0.00
